Results: patent US5597822A, “Pharmaceutical compositions for the prevention and/or treatment a gastrointestinal diseases” (Egis Pharmaceutical, priority 1993, dated 1997)

Experiments:
[1] = tested on: gastric mucosa lesions induced by absolute ethanol; test: Gastroprotective activity, test with absolute ethanol (gastric mucosa erosions); assay type: in vivo, rat
Procedure: (§1) Rats of both sexes weighing 200 to 250 g, each previously starved for 24 hours, were used in this experiment. The lesions of gastric mucosa were induced by the oral administration of absolute ethanol in a dose of 1 ml/animal. After one hour following the administration, the animals were killed by an overdose of ether, the stomach was excised and the alterations of gastric mucosa were examined. The lengths of the erosions were measured and summarized (expressed in mm) for each stomach to obtain the erosion index by calculating the average value of the group. The inhibition was calculated in percentage by comparing the value of the group treated with ethanol to that of the control group treated only with the vehicle. Various doses of the compounds to be tested were administered, perorally, in a volume of 5 ml/kg using a pretreatment time of 60 minutes. Eight rats were used for each dose. /A. Robert, Gastroenterology 77, 761-767 (1979)/.
^x Relative activity = ED50 value of the gastric acid inhibition
related to the ED50 value of the inhibition of the gastric erosion.

[2] = tested on: gastric acid secretion; test: Effect on the gastric acid secretion (Shay's method, pylorus ligation); assay type: in vivo, Wistar rats; conditions: rat, p.o., test according to Shay
Procedure: The influence of the compounds on the gastric acid secretion was examined on starved Wistar rats of both sexes weighing 180 to 240 g each by using Shay's method /H. Shay et al., Gastroenterology, 5, 45 (1945)/. The compounds to be tested were given, perorally, 3 hours before the ligation of the pylorus. Four hours after the operation, the animals were killed by an overdose of ether, the stomach was excised, the stomach content was centrifuged and the free hydrochloric acid content of the gastric juice was determined by titration in the presence of Topfer's reagent. The percentage of inhibition and then the ED50 values were determined by calculating average values for the groups and comparing those to the average values for the control group.

[3] = tested on: gastric erosions induced by ethanol containing hydrochloric acid; test: Test with ethanol containing hydrochloric acid (gastric erosions); assay type: in vivo, rat; conditions: po; rat, p.o., HCl/absolute ethanol 1 to 50; erosion index; read-out: Inhibition of the erosion index, ED50 p.o.
Procedure: as §1
The principle of the method consists in that, simultaneously with the administration of absolute ethanol, hydrochloric acid is introduced to the stomach. Thus, the influence on systemic gastric acid inhibition action can be eliminated by the presence of the exogenous acid.
The reagent used in this test was a mixture of concentrated aqueous hydrochloric acid and absolute ethanol in a mass ratio of 1 to 50 in accordance with the dilution ratio used by Yamazaki et al., see Japan J. Pharmacol., 55, 415-424 (1991). Otherwise, the experiment was performed as described under test 2.1., however, in addition to the erosion index calculated from the lengths of the erosions in mm, the ratio of occurence of animals showing at least one gastric erosion within a test group, i.e. the erosion frequency, was also evaluated.

[4] = tested on: Helicobacter pylori; test: Antibacterial effect on Helicobacter pylori (MIC, blood agar); assay type: cell-based; conditions: for MIC: Helicobacter pylori, 72 h
Procedure: Helicobacter pylori strains used in these experiments were obtained from the biopsial samples of the stomachs of patients suffering from ulcerative diseases of the gastrointestinal system. From the pure culture of isolates a thick suspension was prepared with cysteine-inositol solution suitable for lyophilisation, and the suspension obtained was maintained in cold-resistant plastic ampoules in a deep-freezing chamber at a temperature of about -196 ° C. For the determination of the inhibitory effect of the compounds tested on Helicobacter pylori, blood agar containing 10 mg/liter of vancomycin and 25 mg/liter of amphotericin B was used /C. A. M. McNulty and I. C. Dent: Susceptibility of clinical isolates of Campylobacter pylori to twenty one antimicrobial agents. Book of Abstracts, 4th European Congress of Clinical Microbiology, Nice (1989)/.
The plates containing the strains were cultivated at 37° C. for 72 hours under a gaseous atmosphere containing 10 per cent of carbon dioxide and 5 per cent of oxygen /D. M. Jones et al., J. Clin. Pathol., 37, 1002 (1984)/.
The culture media were inoculated by diluting the broth culture of the strains grown overnight or with a suspension prepared from a culture obtained on a solid medium. About 10^5 of germs were applied to the surface of each plate.
A series of dilution were prepared from the compound to be-tested. The MIC (minimal inhibiting concentration) value of the compounds tested was considered to be the lowest concentration inhibiting the growth of the test organism completely.

NC[C@H]1CC[C@H](C(=O)Oc2ccc(CCC(=O)O)cc2)CC1 [cetraxate, trans-3-[4-[4-(aminomethyl)cyclohexylcarbonyloxy]phenyl]-propionic acid, reference compound]
ED50 ([1]; po, rat, 60 min pretreatment, absolute ethanol 1 ml/animal, erosion index): 76.4 mg/kg | gastroprotective activity (in words) ([1]; test with absolute ethanol): nearly identical activity | gastric acid secretion inhibition (in words) [2]: only a moderate gastric acid secretion inhibition | ED50 [3]: 22 mg/kg | MIC ([4]; Table IV, strains not specified, unit inferred): > 500 µg/mL | MIC ([4]; strain 867/90): > 500 µg/mL | MIC ([4]; strain 1596): > 500 µg/mL | MIC ([4]; strain 3842): > 500 µg/mL | MIC ([4]; strain 6656): > 500 µg/mL | MIC ([4]; strain 6709): > 500 µg/mL | effect on Helicobacter pylori (in words) ([4]; Table IV): ineffective at the concentration indicated
